According to patent US10934303B2, “Aryl ethene derivative and pharmaceutical composition containing same as active ingredient” (priority 2016, dated 2021):
Where two headings read alike, the source gives them in different places.

Columns and labels:
[1] = test system: ERRγ; assay type: cell-based; conditions: for Functional Assay at 10 μM (% of control), Cpds: 24 hours, AD293
Description: AD293 was cultured in a 24-well plate for 24 hours, using a DMEM High glucose culture medium (Hyclone, USA) to which 0.5% FBS was added at a concentration of 9×10^4/well. The culture medium was replaced with a DMEM High glucose culture medium to which 10% FBS was added, treatment was performed with a mixture of a TransIT-LT1 transfection reagent (Mirus, USA) and pCMX-Gal4-ERRγ, pFR-luciferase reporter plasmid, pCMV-β-gal, and culturing was performed for 24 hours. Thereafter, a luciferase activity assay and a β-gal assay were performed, respectively, with a lysate obtained after treatment with the arylethene derivative of the present invention for 24 hours. All results were derived from three or more independent repetitive experiments.

[2] = target: GST-bound ER alpha ligand-binding domain (LBD) (Homo sapiens (Human), UniProt P03372); test: biochemical; conditions: TR-FRET, beta-estradiol 4 nM as agonist; read-out: Binding Assay, IC50 ERα
Description: (§2) The arylethene derivative of the present invention was sequentially added to a 384 well plate from a concentration of 10 μM to a final concentration of two-fold dilution. […] After all reagents were added, a reaction was carried out with gentle shaking at 20° C. for 1 hour, and after the reaction, a binding activity was measured by a TR-FRET method.

[3] = target: GST-bound ERR gamma ligand-binding domain (LBD) (Homo sapiens (Human), UniProt P62508); test: ERRγ binding assay (inverse agonist assay), TR-FRET; conditions: TR-FRET, PGC1a coactivator; read-out: Binding Assay, IC50 ERRγ
Description: 1) ERRγ Binding Assay (Inverse Agonist Assay)
as §2

[4] = target: GST-bound ERR alpha LBD (Homo sapiens (Human), UniProt P11474); conditions: TR-FRET, PGC1a coactivator; read-out: Binding Assay, IC50 ERRα
Description: as §2

[5] = target: hERG channel (Homo sapiens (Human), UniProt Q12809); test: biochemical
[6] = target: ERRβ (Homo sapiens, UniProt O95718); conditions: TR-FRET, PGC1a coactivator; read-out: Binding Assay, IC50 ERRβ
Description: as §2

[7] = target: CYP2D6 (Homo sapiens (Human), UniProt P10635); test: Cytochrome P450 activity inhibition, CYP2D6; assay type: in vitro ADME; conditions: 10 μM, human liver microsomes, Dextromethorphan substrate
Text: (§1) 1) Cytochrome P450 (CYP450) Activity Inhibition Evaluation

[8] = target: CYP2C9 (Homo sapiens (Human), UniProt P11712); test: Cytochrome P450 activity inhibition, CYP2C9; assay type: in vitro ADME; conditions: 10 μM, human liver microsomes, Diclofenac substrate
Text: as §1

[9] = target: CYP1A2 (Homo sapiens (Human), UniProt P05177); test: Cytochrome P450 activity inhibition, CYP1A2; assay type: in vitro ADME; conditions: 10 μM, human liver microsomes, Phenacetin substrate
Text: as §1

[10] = target: CYP3A4 (Homo sapiens (Human), UniProt P08684); test: Cytochrome P450 activity inhibition, CYP3A4; assay type: in vitro ADME; conditions: 10 μM, human liver microsomes, Midazolam substrate
Text: as §1

[11] = target: CYP2C19 (Homo sapiens (Human), UniProt P33261); test: Cytochrome P450 activity inhibition, CYP2C19; assay type: in vitro ADME; conditions: 10 μM, human liver microsomes, S-mephenytoin substrate
Text: as §1

[12] = test system: pERK1/2; test: Western blot, phosphorylated ERK1/2 in CAL62 cells; assay type: cell-based; conditions: MEK inhibitor
[13] = test system: CAL-62 anaplastic thyroid cancer cell line; assay type: cell-based
[14] = 1 μM, 30 minutes, 37° C., NADPH
[15] = in vitro; assay type: in vitro ADME; design: Papp at 5 h: dose or concentration left out as unconfirmed; conditions: PAMPA, PBS pH 7.4, 25° C., read-out: Permeability Pampa
Description: 3) Parallel Artificial Membrane Permeability Assay (PAMPA) Evaluation
PAMPA is a method which has been developed for testing cell membrane permeability of a material in a test tube, and has been performed using a lipid tri-layer PVDF membrane available from Corning Gentest (NY, US), the used reagents were all purchased from Sigma (MO, US). First, a test material is diluted in PBS (pH 7.4) to a final concentration of 10 mM, 300 mL of the solution is added to the bottom well of a 96-transwell equipped with a PVDF membrane, and 200 mL of PBS is added to the upper well. Then, a plate is reacted at 25° C. for 5 hours, 20 mL of the solution in each well is transferred to a new container, and 80 mL of acetonitrile containing an internal standard material (4 mM chloropropamide) is added thereto. A concentration of the material in the solution is analyzed using LC-MS/MS (ThermoFisher Scientific, MO, US), and the transmittance of the material is calculated according to the equation reported in the reference document.

[16] = 1 μM, 30 minutes, 37° C., NADPH; remark: listed apart in the source
[17] = test system: CAL62 cells; test: Clonogenic assay with 131I; assay type: cell-based; conditions: CAL-62, combination with 131I
Description: The cells were plated in a 6-well plate, and allowed to stand for 24 hours. […] The cells were washed with cold bHBSS, and allowed to stand in a normalized culture medium for a time corresponding to six doublings. Finally, the cells were fixed in a 4% paraformaldehyde (PFA) solution and stained with 0.05% crystal violet.

[18] = in vivo; assay type: in vivo; conditions: rat
Description: An oral administration group fasts the day before.
Blood of each animal is collected at 0 hour.
Into a tail vein of an intravenous administration group (IV), a drug is injected at a dose of 1 mg/kg (syringe).
To an oral administration group (PO), a drug is orally administered at a dose of 10 mg/kg (oral zondec)
After administration, blood of the intravenous administration group was collected through a jugular vein 8 times at 0.08, 0.25, 0.5, 1, 2, 4, 6, and 8 hours. One collected blood amount is 400 to 500 ul.
After administration, blood of the oral administration group was collected through a jugular vein 6 times at 0.25, 0.5, 1, 4, 6 and 8 hours. One collected blood amount is 400 to 500 ul.
Supernatant plasma is collected by a centrifuge.
The supernatant plasma was injected into a LC-MS/MS system and the drug is analyzed.

[19] = test system: CAL-62/effluc tumor; conditions: background statement; cited from earlier work

Chain of CYP3A4 (P08684 whole entry): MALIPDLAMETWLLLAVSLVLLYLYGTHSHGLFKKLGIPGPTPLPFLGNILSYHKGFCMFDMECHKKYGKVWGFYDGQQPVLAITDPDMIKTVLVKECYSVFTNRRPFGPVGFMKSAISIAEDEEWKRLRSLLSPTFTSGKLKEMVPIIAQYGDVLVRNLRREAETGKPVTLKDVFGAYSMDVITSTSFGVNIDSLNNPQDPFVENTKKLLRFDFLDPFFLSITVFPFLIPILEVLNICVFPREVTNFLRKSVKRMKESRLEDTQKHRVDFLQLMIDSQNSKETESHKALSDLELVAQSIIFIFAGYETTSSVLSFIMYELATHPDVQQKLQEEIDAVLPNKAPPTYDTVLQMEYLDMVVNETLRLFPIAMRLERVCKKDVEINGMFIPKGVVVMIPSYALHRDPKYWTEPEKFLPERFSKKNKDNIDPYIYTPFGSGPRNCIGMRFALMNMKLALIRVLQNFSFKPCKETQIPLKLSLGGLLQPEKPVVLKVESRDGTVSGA
Chain of ERRβ (O95718 whole entry, looked up): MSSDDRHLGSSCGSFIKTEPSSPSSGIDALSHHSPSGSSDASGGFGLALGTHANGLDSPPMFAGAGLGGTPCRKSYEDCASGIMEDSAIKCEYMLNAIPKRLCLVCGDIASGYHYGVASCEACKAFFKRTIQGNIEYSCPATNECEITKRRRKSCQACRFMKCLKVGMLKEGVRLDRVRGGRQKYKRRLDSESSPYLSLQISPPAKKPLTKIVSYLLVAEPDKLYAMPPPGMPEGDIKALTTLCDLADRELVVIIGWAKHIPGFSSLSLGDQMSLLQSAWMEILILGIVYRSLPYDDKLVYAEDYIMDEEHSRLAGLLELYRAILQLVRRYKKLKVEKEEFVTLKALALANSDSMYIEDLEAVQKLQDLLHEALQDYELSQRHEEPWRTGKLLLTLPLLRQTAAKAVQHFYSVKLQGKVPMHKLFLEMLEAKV
Chain of GST-bound ER alpha ligand-binding domain (LBD) (P03372 whole entry, looked up, the tested form may be a part): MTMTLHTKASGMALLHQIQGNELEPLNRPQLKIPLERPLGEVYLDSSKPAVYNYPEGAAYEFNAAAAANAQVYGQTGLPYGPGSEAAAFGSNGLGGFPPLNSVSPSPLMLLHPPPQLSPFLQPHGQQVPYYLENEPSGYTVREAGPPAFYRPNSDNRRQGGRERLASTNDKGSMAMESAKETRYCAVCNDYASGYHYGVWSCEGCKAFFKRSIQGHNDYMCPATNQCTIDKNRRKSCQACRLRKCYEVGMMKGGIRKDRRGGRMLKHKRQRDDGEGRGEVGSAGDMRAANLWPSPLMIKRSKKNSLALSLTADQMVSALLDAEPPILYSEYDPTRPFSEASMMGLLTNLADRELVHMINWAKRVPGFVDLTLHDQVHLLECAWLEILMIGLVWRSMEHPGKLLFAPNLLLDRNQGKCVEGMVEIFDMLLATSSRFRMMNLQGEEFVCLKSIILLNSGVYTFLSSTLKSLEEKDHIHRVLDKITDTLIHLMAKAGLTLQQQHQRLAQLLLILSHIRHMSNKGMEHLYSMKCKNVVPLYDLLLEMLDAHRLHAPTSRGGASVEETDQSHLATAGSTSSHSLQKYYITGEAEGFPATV
Chain of GST-bound ERR alpha LBD (P11474 193-421): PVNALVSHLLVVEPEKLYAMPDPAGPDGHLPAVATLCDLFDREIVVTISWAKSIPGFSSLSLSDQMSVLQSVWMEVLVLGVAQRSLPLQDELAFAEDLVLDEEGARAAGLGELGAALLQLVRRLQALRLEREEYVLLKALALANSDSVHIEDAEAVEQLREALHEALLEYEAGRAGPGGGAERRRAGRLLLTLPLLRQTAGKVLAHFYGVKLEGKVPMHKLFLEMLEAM
Chain of GST-bound ERR gamma ligand-binding domain (LBD) (P62508 233-457): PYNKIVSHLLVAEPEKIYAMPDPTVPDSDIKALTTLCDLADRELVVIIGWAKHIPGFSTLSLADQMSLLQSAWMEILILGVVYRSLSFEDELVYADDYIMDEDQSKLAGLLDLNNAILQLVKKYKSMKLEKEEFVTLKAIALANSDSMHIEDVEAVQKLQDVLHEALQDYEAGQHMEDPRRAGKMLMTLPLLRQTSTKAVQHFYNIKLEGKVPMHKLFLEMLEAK
Chain of CYP2C19 (P33261 whole entry): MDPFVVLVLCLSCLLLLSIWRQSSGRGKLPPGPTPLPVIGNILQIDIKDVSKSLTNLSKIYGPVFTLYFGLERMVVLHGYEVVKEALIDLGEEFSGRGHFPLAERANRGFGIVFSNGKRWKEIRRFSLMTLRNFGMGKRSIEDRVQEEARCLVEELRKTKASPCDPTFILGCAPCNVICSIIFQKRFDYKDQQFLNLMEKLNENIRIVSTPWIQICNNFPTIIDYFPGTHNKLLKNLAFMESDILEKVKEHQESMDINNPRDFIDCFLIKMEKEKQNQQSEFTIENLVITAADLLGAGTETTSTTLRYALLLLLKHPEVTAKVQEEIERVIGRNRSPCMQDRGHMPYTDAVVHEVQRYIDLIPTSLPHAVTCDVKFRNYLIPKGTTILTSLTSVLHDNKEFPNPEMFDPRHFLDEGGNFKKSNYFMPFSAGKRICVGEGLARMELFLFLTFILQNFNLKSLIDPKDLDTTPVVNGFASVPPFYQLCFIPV
Chain of CYP1A2 (P05177 whole entry): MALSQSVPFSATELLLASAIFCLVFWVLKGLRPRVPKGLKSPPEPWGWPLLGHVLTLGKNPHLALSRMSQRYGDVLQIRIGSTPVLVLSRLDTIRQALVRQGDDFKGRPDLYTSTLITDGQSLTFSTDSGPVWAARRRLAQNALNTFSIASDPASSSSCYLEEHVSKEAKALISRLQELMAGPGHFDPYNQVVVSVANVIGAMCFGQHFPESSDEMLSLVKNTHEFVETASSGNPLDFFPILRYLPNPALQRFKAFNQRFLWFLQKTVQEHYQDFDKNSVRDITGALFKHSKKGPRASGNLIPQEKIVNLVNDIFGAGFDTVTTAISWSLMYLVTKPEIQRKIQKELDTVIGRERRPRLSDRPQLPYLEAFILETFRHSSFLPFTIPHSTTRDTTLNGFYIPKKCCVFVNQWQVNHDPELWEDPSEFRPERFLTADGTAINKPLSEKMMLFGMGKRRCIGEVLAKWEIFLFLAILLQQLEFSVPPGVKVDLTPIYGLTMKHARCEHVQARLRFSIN
Chain of CYP2D6 (P10635 whole entry): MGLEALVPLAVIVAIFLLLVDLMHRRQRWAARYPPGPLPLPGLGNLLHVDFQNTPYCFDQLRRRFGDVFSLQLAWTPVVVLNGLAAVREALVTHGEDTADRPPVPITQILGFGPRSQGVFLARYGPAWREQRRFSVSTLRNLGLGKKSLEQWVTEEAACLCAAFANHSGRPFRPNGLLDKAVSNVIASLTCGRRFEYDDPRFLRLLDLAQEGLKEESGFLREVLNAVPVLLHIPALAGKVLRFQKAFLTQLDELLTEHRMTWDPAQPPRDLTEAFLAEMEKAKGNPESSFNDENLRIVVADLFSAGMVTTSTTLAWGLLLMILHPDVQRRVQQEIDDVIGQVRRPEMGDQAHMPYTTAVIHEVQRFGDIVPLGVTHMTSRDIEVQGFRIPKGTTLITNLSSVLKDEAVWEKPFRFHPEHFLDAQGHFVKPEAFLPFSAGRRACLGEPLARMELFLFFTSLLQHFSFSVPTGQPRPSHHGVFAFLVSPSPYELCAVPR
Chain of CYP2C9 (P11712 whole entry): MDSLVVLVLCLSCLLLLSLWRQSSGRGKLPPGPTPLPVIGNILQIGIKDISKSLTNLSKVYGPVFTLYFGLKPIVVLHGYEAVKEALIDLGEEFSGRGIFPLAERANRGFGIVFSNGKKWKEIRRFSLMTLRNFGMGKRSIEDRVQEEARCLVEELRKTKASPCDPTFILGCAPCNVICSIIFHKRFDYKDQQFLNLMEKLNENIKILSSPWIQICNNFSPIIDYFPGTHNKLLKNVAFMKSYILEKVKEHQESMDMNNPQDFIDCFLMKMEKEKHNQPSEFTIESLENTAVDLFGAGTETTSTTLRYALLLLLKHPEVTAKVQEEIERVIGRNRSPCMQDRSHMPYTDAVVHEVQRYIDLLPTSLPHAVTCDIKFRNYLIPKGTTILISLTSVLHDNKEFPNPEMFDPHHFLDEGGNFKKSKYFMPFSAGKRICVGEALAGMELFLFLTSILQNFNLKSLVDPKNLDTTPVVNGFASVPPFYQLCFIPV

OCCC/C(=C(\c1ccc(O)cc1)c1ccc(OCCN2CC3CC3C2)cc1)c1ccccc1 (stereo not shown) [Compound 38a, (Z)-4-(1-(4-(2-(3-azabicyclo[3.1.0]hexan-3-yl)ethoxy)phenyl)-5-hydroxy-2-phenylpent-1-en-1-yl)phenol]
Functional Assay at 10 μM (% of control), Cpds [1]: 1.45 % of control | Functional Assay, Cpds/Ref 5182 ([1]; activity relative to reference compound GSK5182, 10 μM): 1.42 | IC50 [2]: 437 nM | IC50 [3]: 79 nM | IC50 [4]: > 10000 nM | IC50 [5]: 16100 nM | IC50 [6]: 8130 nM

OCCC/C(=C(\c1ccc(O)cc1)c1ccc(OCCN2CCC[C@@H]2CO)cc1)c1ccccc1 [Compound 38c]
CYP inhibition (% of control) 2D6 [7]: 54.3 % of control | Functional Assay, Cpds/Ref 5182 [1]: 0.99 | Functional Assay at 10 μM (% of control), Cpds [1]: 4.06 % of control | CYP inhibition (% of control) 2C9 [8]: 55.3 % of control | IC50 [2]: 408 nM | IC50 [3]: 91 nM | CYP inhibition (% of control) 1A2 [9]: 79.2 % of control | IC50 [4]: > 10000 nM | CYP inhibition (% of control) 3A4 [10]: 61.5 % of control | CYP inhibition (% of control) 2C19 [11]: 58.8 % of control | IC50 [6]: > 10000 nM

N#CC(=C(/N)Sc1ccccc1N)/C(C#N)=C(\N)Sc1ccccc1N [Compound U0126]
inhibition of relative increase of phosphorylated ERK1 and ERK2 by compound 18a [12]: completely inhibited | inhibition of radioactive iodine uptake increase by compound 18a ([13]; MEK inhibitor pre-incubation 30 minutes): completely inhibited

CN(C)CCOc1ccc(/C(=C(/CCCO)c2ccccc2)c2ccc(O)cc2)cc1 [GSK5182, (Z)-4-(1-(4-(2-(dimethylamino)ethoxy)phenyl)-5-hydroxy-2-phenylpent-1-en-1-yl)phenol, reference compound]
MS(Microsomal Stability) (%) rat [14]: 26.0-29.1% | Papp at 5 h [15]: 0.11 to 0.82 ×10⁻⁶ cm/s | MS(Microsomal Stability) (%) human [16]: 42.8-45.1% | colony-formability, combining 131I and GSK5182 [17]: about 58.5±7.4% | half-life ([18]; in vivo, IV, 1 mg/kg): 2.3 h | Vd ([18]; in vivo, IV, 1 mg/kg, read-out: Vss): 9.1 L/kg | CL/F ([18]; in vivo, PO, 10 mg/kg, read-out: Cl(observed)/F): 134 mL/min/kg | Tmax ([18]; in vivo, PO, 10 mg/kg, read-out: Tmax): 1.9 h | AUCINF ([18]; IV, 1 mg/kg): 0.94 μMh | AUCall ([18]; IV, 1 mg/kg): 0.89 μMh | Cl(observed)/F ([18]; IV, 1 mg/kg): 44 mL/min/kg | AUCINF ([18]; PO, 10 mg/kg): 0.78 μMh | AUCall ([18]; PO, 10 mg/kg): 0.68 μMh | BA ([18]; PO, 10 mg/kg): 8.4% | Cmax ([18]; in vivo, po, 10 mg/kg): 130 nM | CYP inhibition (% of control) 3A4 [10]: 83 % of control | radioiodine uptake in the tumor, ATC mouse tumor model [19]: not increased

[K+].[O-][Cl+3]([O-])([O-])[O-] [KClO4]
block of radioactive iodine uptake increased in compound 18a-treated cells ([13]; co-incubated with compound 18a-treated CAL62 cells, 300 μM KClO4): completely blocks

COc1cccc(-c2cc(=O)c3ccccc3o2)c1N [PD98059]
inhibition of relative increase of phosphorylated ERK1 and ERK2 by compound 18a [12]: completely inhibited | inhibition of radioactive iodine uptake increase by compound 18a [13]: completely inhibited
